Here are results for twelve molecules from US9644194B2, “Cold-adapted protease derived from Pseudoalteromonas arctica PAMC 21717 and uses thereof” (KOREA INSTITUTE OF OCEAN SCIENCE & TECHNOLOGY, priority 2014, dated 2017).

A value given as a limit tells only on which side of the number the result lay.

Series [1] relates to W-Pro21717. Kind of series: Activity and stability of W-Pro21717 in the presence of metal ions and surfactants. The class given is biochemical, Pseudoalteromonas arctica PAMC 21717. The settings on record: 1 mM, on ice for 1 hour, FIG. 3; for influence on the activity of W-Pro21717: result in words. As for the experimental part:
In order to analyze the influence of metal ions and detergents, W-[…] was allowed to react with a standard buffer containing 1 mM BaCl2, CuSO4, MgSO4, CaCl2, ZnSO4, FePO4, KCl, NaCl, […], sodium linear alkylbenzene sulfonate (LAS) or SDS on ice for 1 hour. In addition, the compatibility of W-[…] with a commercial detergent (LG Household & Health Care, Korea; containing subtilisin Carlsberg) was analyzed using skim milk at temperatures of 10° C. and 30° C.

The subject of series [2] is W-Pro21717. Kind of series: Effect of protease inhibitors on W-Pro21717 activity. The class given is biochemical, Pseudoalteromonas arctica PAMC 21717. The settings on record: result in words. As for the experimental part:
(§1) The reaction solution was centrifuged, and then filtered through a filter having a pore size of 0.45 μm, and the filtrate was mixed and reacted with Folin & Ciocalteu's phenol solution and 500 mM sodium carbonate solution at 37° C. for 30 minutes. Next, the enzymatic activity of the reaction product was measured at 660 nm based on an L-tyrosine standard curve, and an amino acid production of 1 nmole/min/mg at 25° C. was defined as the activity of 1 unit of protease.
The kind of W-Pro21717 was analyzed by reactions with various protease inhibitors.

Series [3] has as its system azocasein. The experiment in a line: Activity and stability of W-Pro21717 with temperature and pH. The class given is biochemical. As for the experimental part:
as §1, with “In order to measure the degradation activity of W-Pro21717, the cultured PAMC 21717 cells were centrifuged at 4° C. at 12,000×g for 30 minutes, and the supernatant was mixed with 50 mM sodium phosphate buffer (pH 7.6) containing 0.65% azocasein substrate, and was allowed to at 25° C. for 1 hour, and then additionally allowed to react at 37° C. for 1 hour after adding 110 mM trichloroacetic acid thereto. The” for “The”
A temperature optimal for the activity of W-Pro21717 was analyzed in the temperature range of 0 to 60° C., and the optimum pH was analyzed by 1-hour reactions in 50 mM sodium acetate (pH 2.0-6.0), 50 mM potassium phosphate (pH 7.0-10.0) and 50 mM sodium tetraborate (pH 10.0). As a control, 3 μg of the commercial protease Carlsberg subtilisin was used.

A short description of series [4]: Substrate specificity of W-Pro21717 with synthetic peptides. The format is biochemical. The settings on record: 25° C., 10 minutes, 410 nm. As for the experimental part:
The substrate specificity of W-Pro21717 was analyzed using 5 mM of each of the following 7 different synthetic peptides: N-succinyl-Ala-Ala-Val-p-nitroanilide (AAV), N-succinyl-Ala-Ala-Pro-Leu-p-nitroanilide (AAPL), N-succinyl-Ala-Ala-Ala-p-nitroanilide (AAA), N-succinyl-Gly-Gly-Phe-p-nitroanilide (GGF), N-succinyl-Thr-Leu-Val-p-nitroanilide (TLV), N-succinyl-Ala-Ala-Pro-Phe-p-nitroanilide (AAPF), and N-succinyl-Ala-Ala-Val-Ala-p-nitroanilide (AAVA). W-Pro21717 was allowed to react with a standard buffer containing 0.83 mM substrate at 25° C. for 10 minutes, and then the relative activity thereof was measured at 410 nm.

Series [5] concerns azocasein. The experiment in a line: Activity and stability of R-Pro21717 with temperature and pH. The class given is biochemical. On the procedure:
In order to determine a temperature optimal for the activity of the protease, R-Pro21717 was allowed to react at varying temperatures of 0˜70° C., and then analyzed. The stability of R-Pro21717 against temperature was analyzed by allowing R-Pro21717 at varying temperatures of 0˜70° C. for 1 hour, and then allowing R-Pro21717 to react a 0.65% azocasein-containing standard buffer at 30° C. for 30 minutes. As a control enzyme, Carlsberg subtilisin was used.
In order to determine a pH optimal for the activity of the protease, R-Pro21717-containing buffers having varying pHs were allowed to react at 30° C., and then analyzed. The stability of R-Pro21717 against pH was analyzed by allowing R-Pro21717-containing buffers having varying pHs to react on ice for 1 hour, and then reacting R-Pro21717 in 0.65% azocasein-containing standard buffer at 30° C. for 30 minutes. Carlsberg subtilisin was used as a control enzyme and analyzed at a reaction temperature of 40° C.

Regarding `[Ba+2].[Cl-].[Cl-]` [Ba^2+, BaCl2], in the series on W-Pro21717 [1], the “influence on the activity of W-Pro21717” value is listed as “did not influence”.

Take `[Ca+2].[Cl-].[Cl-]` [Ca^2+, CaCl2]: the “influence on the activity of W-Pro21717” value with W-Pro21717 [1] is “did not influence”.

For `O=S(=O)([O-])[O-].[Cu+2]` [CuSO4], the “increase of the activity of W-Pro21717” value in the series on W-Pro21717 [1] is listed as “about 60%”.

On to `O=C(O)CN(CCN(CC(=O)O)CC(=O)O)CC(=O)O` [EDTA], for which the “effect of inhibitor on the activity of W-Pro21717” value (from here on “effect of inhibitor”) with W-Pro21717 [2] was “slightly inhibited”.

In the case of `[Fe+2]` [Fe^2+, FePO4], the “influence on the activity of W-Pro21717” value with W-Pro21717 [1] is “did not influence”.

Turning to `[Cl][Hg][Cl]` [HgCl2], the “effect of inhibitor” value with W-Pro21717 [2] is listed as “inhibited”.

For the molecule `[Cl-].[K+]` [K^+, KCl], the “influence on the activity of W-Pro21717” value in the series on W-Pro21717 [1] is “did not influence”.

In the case of `O=S(=O)([O-])[O-].[Mg+2]` [Mg^2+, MgSO4], in the series on W-Pro21717 [1], the “influence on the activity of W-Pro21717” value was “did not influence”.

On to `[Cl-].[Na+]` [Na^2+, NaCl], for which the “influence on the activity of W-Pro21717” value with W-Pro21717 [1] is given as “did not influence”.

Regarding `O=S(=O)(F)Cc1ccccc1` [PMSF], the “effect of inhibitor” value in the series with W-Pro21717 [2] was “inhibited”.

For `O=S(=O)([O-])[O-].[Zn+2]` [Zn^2+, ZnSO4], the “influence on the activity of W-Pro21717” value in the series with W-Pro21717 [1] is on record as “did not influence”.

B1: Subtilisin Carlsberg: commercial protease used as control enzyme (protein, UniProt P00780 106-379, looked up)
Subtilisin Carlsberg: AQTVPYGIPLIKADKVQAQGFKGANVKVAVLDTGIQASHPDLNVVGGASFVAGEAYNTDGNGHGTHVAGTVAALDNTTGVLGVAPSVSLYAVKVLNSSGSGSYSGIVSGIEWATTNGMDVINMSLGGASGSTAMKQAVDNAYAKGVVVVAAAGNSGSSGNTNTIGYPAKYDSVIAVGAVDSNSNRASFSSVGAELEVMAPGAGVYSTYPTNTYATLNGTSMASPHVAGAAALILSKHPNLSASQVRNRLSSTATYLGSSFYYGKGLINVEAAAQ
In the case of B1, the “temperature optimal for the activity” value in the series with azocasein [3] (tested 0 to 60° C., FIG. 2A) was found to be 60 °C; in the series on azocasein [5] (tested 0˜70° C., FIG. 9A) it was 60 °C. The “decrease in activity after a reaction at 40° C. for 1 hour” value with azocasein [3] (thermal stability, FIG. 2B) was 80%. Also, the figures for the “Relative activity (%)” value in series [4] (substrate AAPF) and in series [4] (substrate GGF) were 100% and 0%, respectively. Also, in the series on azocasein [5] (1 hour at temperature, then azocasein 30° C. 30 minutes, FIG. 9B), the “temperature at which stability / enzymatic activity decreases” value is at least 50 °C. Moreover, the “pH of highest activity” value in the series on azocasein [5] (FIG. 9C) is listed as “same results as those of R-Pro21717”. Moreover, the “pH optimal for the stability” value in the series with azocasein [5] (on ice for 1 hour, FIG. 9D) is “same results as those of R-Pro21717”. Also, in the series with azocasein [5] (printed 'at or'), the “proteolytic activity at low temperature relative to the highest activity” value is given as “did not show proteolytic activity”.
